From patent US7462643B1, “Essential fatty acids in the prevention of cardiovascular events” (Pfizer Italia S.R.L., priority 1999, dated 2008)

System: patients who have suffered from a myocardial infarction
Assay: clinical trial of 3.5 years in infarcted patients on standard therapy, post-infarction mortality versus control group
Assay type: in vivo, human
Settings: added to standard therapy
Excerpt: The efficacy of the treatment, according to the invention, is, for instance, proven by the fact that a surprising and highly significant reduction in post-infarction mortality was observed by such treatment in a clinical trial that lasted for 3.5 years, with protocols substantially designed as follows: • 1 a “control” group received the standard therapy which is usually given to infarcted patients; • 2 a “treatment” group, besides the therapy that was given to the “control” group, received 85% EPA+DHA (1 g daily); • 3 a “treatment” group, besides the therapy that was given to the “control” group received vitamin E; and • 4 a “treatment” group, besides the therapy that was given to the control group, received vitamin E and 85% EPA+DHA (1 g daily). […] From the above clinical results, the person skilled in the art will appreciate that, the use of a pharmaceutical composition in accordance to the present invention is certainly useful in human therapy in preventing mortality in patients who have suffered from a myocardial infarction.

For vitamin E, the “result on mortality as compared to the control group (in words)” value was “no significant results”.
